We go through three compounds from patent US7368439B2, “Dinucleoside poly(borano)phosphate derivatives and uses thereof” (BAR - ILAN University, priority 2005, dated 2008).

The conditions of series [1]: pH 7.4/37° C., Tris/HCl buffer; for deboranation products: 4 weeks; for decomposition: 4 weeks (one month), sodium salts.
Protocol: Dinucleosides poly(borano)phosphates tri- or penta-sodium salts were dissolved in Tris/HCl buffer (pH 7.4, 0.45 ml), and D2O (0.6 ml). pH 7.4 was then adjusted with HCl and measured with a pH-meter. Final analogue concentration was about 0.02 M. ^31P NMR spectra were recorded during 4 weeks at 3-7 days intervals at 37° C. Percentage of phosphoester hydrolysis of Ap3(β-B)A/Up3(β-B)U is based on absolute integrations of monophosphate signal (2.5 ppm). Percentage of phosphodiester hydrolysis of dinucleoside pentaphosphate is based on absolute integrations of Pα signal of ADP or UDP products.
Thus, ^31P NMR spectra of Up3(β-B)U, 2, and Ap5(β-B)A, 3, tri- and penta-sodium salts, respectively, in Tris/HCl buffer (in H2O), pH 7.4, were recorded during 4 weeks at 1- to 3-day intervals at 37° C.
The conditions of series [2]: for calculated hydrolysis rate constant: pH 1.4/37° C., KCl/HCl buffer, sodium salts, pseudo first-order fit.
Protocol: To evaluate chemical stability at pH 1.4, sodium salts of dinucleoside poly(borano)phosphate analogues were dissolved in KCl/HCl buffer (pH 1.4, 0.44 ml) and D2O (0.06 ml). The final pH was then adjusted with HCl and measured with a pH-meter (final concentration 0.016 M). ^31P NMR spectra of Ap3(β-B)A and Up3(β-B)U were recorded during 3 h at 10 min time intervals at 37° C. Number of scans in all experiments was 1200, number of experiments was 17. The hydrolysis rate was determined by measurements of absolute integration of Pα (2.5 ppm) signal as a function of time and was fitted to a pseudo-first-order reaction model.
^31P NMR spectra of Ap5(β-B)A was recorded during 1 h at 10 min time intervals at 37° C. Number of scans in all experiments was 1200, number of experiments was 6. The hydrolysis rate was determined by measurement the absolute intagration of Pβ signal as a function of time and was fitted to a pseudo-first-order reaction model.
Chemical stability under conditions simulating gastric juice (pH 1.4/37° C.) was evaluated with Ap3(β-B)A, 1, Up3(β-B)U, 2, and Ap5(γ-B)A, 3 sodium salts, in KCl/HCl buffer. ^31P NMR spectra was recorded during 3 h at 10 min intervals. […] The intensity changes of the monophosphate ^31P signal with time were fit to a pseudo first-order exponential decay rate equation with respect to 1/2 concentration.
Series [3] concerns Diet-Induced Obesity (DIO) mouse model. Kind of series: Glycemic response of DIO mice in the Oral Glucose Tolerance Test after a single intravenous administration. In kind it is in vivo. As for the experimental part:
C57BL/6 male mice (Charles River Canada, St-Constant, Qc, Canada) were received at 7-8 weeks of age and fed a high fat diet (60% of calories from fat) for 6-8 weeks to induce hyperglycemia and obesity (Surwit et al., 1988). Blood glucose was checked and animals with readings between 200 and 220 mg/dl were included in the study. The animals were randomized based on their body weight and glycemic values, into control and treatment groups (n=6-8). The animals received a single intravenous injection of the test compound one minute prior to the Oral Glucose Tolerance Test (OGTT). The control group received vehicle (saline) alone. Blood samples (one drop) were collected from the tail vein prior to the administration of the test compound and at 5, 10, 20, 30, 60, 90 and 120 minutes post-glucose administration. Whole blood glucose values were determined using a hand-held glucometer (Model OneTouch Ultra, LifeScan). All data are expressed as mean±SEM.
FIG. 2 is an area under the curve (AUC) graph of delta glycemia. It is a representation of the area under the curve of the responses seen during the oral glucose tolerance test challenge. The data are corrected for the baseline blood glucose levels of the individual mice. […] If the area under the curves is integrated, the response can be quantified as represented in the bar graph.

For series [4], the system named is INS-1 cells. Kind of series: Glucose-dependent stimulation of insulin secretion in INS-1 cells. In kind it is cell-based. The following applies: 6 mM glucose. As for the experimental part:
Compound 2, sodium salt, was tested for insulinotropic effect on insulin-secreting INS-1 cells (Hohmeier et al., 2000). Briefly, the cells were plated at a density of 2×10^5 in 12-well plates in RPMI with 10% fetal calf serum containing 11 mM glucose and maintained at 37° C. in a humidified atmosphere containing 5% CO2 for 2 days. The medium was removed on the third day post-plating and replaced with RPMI containing 3 mM glucose with 10% fetal calf serum. The cells were incubated for an additional 24 hours at 37° C. in a humidified atmosphere containing 5% CO2. On the fourth day post-plating, the medium was removed and replaced with Krebs-Ringer bicarbonate Hepes buffer (pH 7.4) containing 2 mM glucose. The cells were incubated for 30 min, and then the buffer was removed and replaced with Krebs-Ringer bicarbonate Hepes buffer (pH 7.4) with 6 mM glucose containing the test compound at various concentrations. The cells were incubated for 1 hour. Basal insulin secretion was determined by incubating the cells in the presence of buffer with 2 mM glucose. The presence of glucose at 6 and 10 mM stimulated insulin secretion and served as the reference control and positive control, respectively. A positive stimulatory response by the test compound was taken as the response above that elicited by 6 mM glucose.

Series [5] concerns human islets. Put plainly: Insulin secretion using human islets. In kind it is cell-based. To be noted: 12 mM glucose; 10^−13 and 10^−12 M; 30 minutes at 37° C.; FIG. 3. The method, then:
Islets aliquots were supplemented with 1 ml of medium containing 2.2, 12 or 22 mM glucose, or 22 mM glucose with 3-isobutyl-1-methylxanthine (IBMX) as a positive control, in the presence of various concentration of Up3(β-B)U tri-sodium salt, and incubated for 30 minutes at 37° C. in a humidified atmosphere containing 5% CO2. The medium was then collected for determination of insulin level; islets were collected for determination of protein; and insulin secretion was normalized to total protein. Basal insulin secretion was determined by incubating the islets in the presence of buffer containing 2 mM glucose.
Islets were kept in CMRL 1066 medium containing 5.5 mM glucose for 2-3 days and then washed out with medium containing 2.2 mM glucose. Islet aliquots were supplemented with 1 ml of medium containing 2.2, 12 or 22 mM glucose or 22 mM glucose with 3-isobutyl-1-methylxanthine (IBMX), in the presence or absence of the different secretagogues. The experiments were done in triplicate. Islets were incubated for 30 minutes at 37° C. in a humidified atmosphere containing 5% CO2. After incubation, the medium was collected for determination of insulin level. Quantification of insulin was done in duplicate using human insulin ELISA kit (ALPCO). […] Basal insulin secretion was determined by incubating the islets in the presence of buffer with 2 mM glucose. […]

Like-named read-outs stand apart in the source and are kept apart here.

`BP(=O)(OP(=O)(O)OP(=O)(O)OCC1OC(n2cnc3c(N)ncnc32)C(O)C1O)OP(=O)(O)OP(=O)(O)OCC1OC(n2cnc3c(N)ncnc32)C(O)C1O` (stereo not shown) [compound 3, diadenosine penta(borano)phosphate]: the deboranation products entry in series [1] is “No deboranation products could be detected”. Further, the figures for the decomposition entry in series [1] and in series [1] (listed as Ap5(γ-B)A) were “less than 15%” and “less than 10%”, respectively. For the same compound, the “fold less hydrolytically stable compared to Ap3(β-B)A” value in series [2] (gastric juice conditions) is “about 4 fold”.

As to “diuridine tri(borano)phosphate [compound 2]”, the “activity on glycemia at low concentration” value in series [3] (100 ng/kg intravenous, activity dropping as the concentration decreased) is reported as “active at low concentration”. Besides, the “effect on the increase of glycemia (delta glycemia, AUC)” value in series [3] (DIO-mice, intravenous, one minute prior to the glucose challenge, FIG. 2) is recorded as “partially inhibited the increase of the glycemia”. Also, in series [1], the deboranation products entry is recorded as “No deboranation products could be detected”. Further, the “insulin secretion versus background” value in series [4] (1 hour incubation, FIG. 1) is recorded as “stimulated insulin secretion above background levels”. Further, the “activity on insulin secretion at low concentrations” value in series [4] (10^−12 and 10^−11 M, activity dropping as the concentration increased) is “active at low concentrations”. Besides, in series [2], the “calculated hydrolysis rate constant” value was 0.000165 s⁻¹. The “insulin secretion by human islets” value in series [5] was “able to promote significant insulin secretion”.

Regarding “diadenosine tri(borano)phosphate [compound 1]”, the “calculated hydrolysis rate constant” value in series [2] is 0.000152 s⁻¹. In addition, the “fold less stable than ATP-α-B analogues” value in series [2] (under gastric juice conditions) was determined as 2 fold.
